Measured values: patent US6171808A, “Mutant luciferases” (priority 1995, dated 2001)

Tests used:
[1] = biological target: T1, Photinus pyralis luciferase variant 601aG1, E270K (270 lysine Km change), SEQ ID No 2 with Xaa = lysine (Photinus pyralis, UniProt P08659, E270K); test: Km determination with respect to ATP, luminometric luciferase assay; type: biochemical; details: read-out: Km value with respect to ATP; 21° C., tricine pH7.8, 470 μM D-luciferin, 6.25 to 400 μM ATP
T1 construct: made in house; host or cells: E. coli BL21 (DE3) (pPW601G1)
T1 sequence (P08659 whole entry E270K): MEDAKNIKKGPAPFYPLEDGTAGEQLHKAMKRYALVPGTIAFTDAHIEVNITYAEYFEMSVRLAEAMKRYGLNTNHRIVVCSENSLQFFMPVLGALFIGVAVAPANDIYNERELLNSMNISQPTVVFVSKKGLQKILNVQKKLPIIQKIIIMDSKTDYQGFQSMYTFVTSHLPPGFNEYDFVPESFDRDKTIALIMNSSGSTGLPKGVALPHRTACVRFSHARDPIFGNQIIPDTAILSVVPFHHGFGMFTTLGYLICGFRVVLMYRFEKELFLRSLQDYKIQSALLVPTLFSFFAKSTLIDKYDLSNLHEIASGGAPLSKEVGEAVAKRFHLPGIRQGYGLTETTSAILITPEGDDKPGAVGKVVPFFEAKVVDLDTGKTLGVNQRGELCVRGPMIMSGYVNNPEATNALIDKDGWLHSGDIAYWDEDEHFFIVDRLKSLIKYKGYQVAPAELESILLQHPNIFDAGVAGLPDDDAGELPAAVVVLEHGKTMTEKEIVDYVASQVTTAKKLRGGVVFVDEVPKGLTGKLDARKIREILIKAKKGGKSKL
Excerpt: The Km mutant was initially generated by hydroxylamine induced mutagenesis of the luc gene within pPW304 to provide plasmid 304 G1 bearing a single base change in the DNA sequence at 811 of SEQ ID No 1 resulting in an amino acid glutamate change to lysine at position 270. A 1.1 kb DNA fragment (BstE II/Stu I) was cloned from pPW304 and used to replace the corresponding fragment in pP601a to form pPW601G1, thus providing a luc gene encoding for luciferase without the four extra amino acids encoded by pPW304 (M not included from M-A-R-I-Q).

[2] = biological target: T2, Photinus pyralis luciferase, recombinant wild-type (601a) (Photinus pyralis, UniProt P08659); test: as above; type: biochemical; details: 21° C., tricine pH7.8, 470 μM D-luciferin, 6.25 to 400 μM ATP
T2 construct: made in house; host or cells: E. coli JM109 (pPW601a, derived from pDR540 and the luc gene of pGEM-luc)
T2 sequence (P08659 whole entry): as the sequence (P08659 whole entry E270K) above, with K270E counted along it

[3] = biological target: T3, Photinus pyralis luciferase double mutant 601aG1K, E270K + E354K, SEQ ID No 4 (Photinus pyralis, UniProt P08659, E270K/E354K); test: as above; type: biochemical; details: read-out: Km value with respect to ATP; 21° C., tricine pH7.8, 470 μM D-luciferin, 6.25 to 400 μM ATP
T3 construct: made in house; host or cells: E. coli JM109 (pPW601aG1K, pDR540-derived)
T3 sequence (P08659 whole entry E270K/E354K): as the sequence (P08659 whole entry E270K) above, with E354K counted along it

[4] = biological target: Photinus pyralis luciferase variant 601aK, E354K (thermostable mutant 354 lysine) (Photinus pyralis, UniProt P08659, E354K); details: read-out: Km value with respect to ATP; 21° C., tricine pH7.8, 470 μM D-luciferin, 6.25 to 400 μM ATP
Chain of Photinus pyralis luciferase variant 601aK, E354K (thermostable mutant 354 lysine) (P08659 whole entry E354K): as the sequence (P08659 whole entry E270K) above, with K270E, E354K counted along it

Nc1ncnc2c1ncn2[C@@H]1O[C@H](COP(=O)(O)OP(=O)(O)OP(=O)(O)O)[C@@H](O)[C@H]1O [ATP, adenosine triphosphate]
Km [1]: 28.7 µM
Km [2]: 66.1 µM
Km [3]: 25.2 µM
Km [4]: 61.3 µM
